Assay results: US8299048B2, “Hexahydrocyclopentyl[f]indazole sulfonamides and derivatives thereof as selective glucocorticoid receptor modulators” (Merck Sharp & Dohme Corp., priority 2008, dated 2012)
pKi: −log10 of the molar value.

These molecules were tested against T1, glucocorticoid receptor (Homo sapiens, UniProt P04150) (assay: Ligand binding assay (GR BIND)).
T1 construct: endogenous in cells
T1 sequence (P04150 1-777): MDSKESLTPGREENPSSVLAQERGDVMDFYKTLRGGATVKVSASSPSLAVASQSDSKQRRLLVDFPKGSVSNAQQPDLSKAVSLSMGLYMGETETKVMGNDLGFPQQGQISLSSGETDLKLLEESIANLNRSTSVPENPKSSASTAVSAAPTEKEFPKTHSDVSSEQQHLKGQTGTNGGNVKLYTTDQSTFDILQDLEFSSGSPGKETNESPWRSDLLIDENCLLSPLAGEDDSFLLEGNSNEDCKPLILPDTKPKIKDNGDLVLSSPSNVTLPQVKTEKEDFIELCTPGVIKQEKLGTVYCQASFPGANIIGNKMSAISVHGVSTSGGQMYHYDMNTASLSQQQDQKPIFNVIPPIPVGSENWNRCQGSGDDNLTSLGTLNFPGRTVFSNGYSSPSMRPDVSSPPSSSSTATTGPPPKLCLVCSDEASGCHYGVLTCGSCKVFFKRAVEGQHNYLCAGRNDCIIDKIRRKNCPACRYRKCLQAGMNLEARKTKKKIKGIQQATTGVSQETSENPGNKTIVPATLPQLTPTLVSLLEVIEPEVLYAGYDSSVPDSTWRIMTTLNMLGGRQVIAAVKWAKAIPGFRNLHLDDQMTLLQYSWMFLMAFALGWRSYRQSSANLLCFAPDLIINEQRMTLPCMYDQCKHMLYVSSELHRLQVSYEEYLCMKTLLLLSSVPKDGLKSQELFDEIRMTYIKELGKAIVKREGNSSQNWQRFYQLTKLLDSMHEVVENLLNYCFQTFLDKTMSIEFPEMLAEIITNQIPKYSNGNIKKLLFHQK
In short: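 Cytosol from freeze–thawed cells in TEGM (pH 7.2, 10 mM molybdate) was incubated overnight at 4 °C with compound and [3H]-dexamethasone trace (added as 6 nM solution), 2% EtOH final. Bound ligand was captured on hydroxylapatite, filtered, washed and scintillation counted. Values were calculated with dexamethasone as reference.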

SMILES	pKi
C[C@]12Cc3cnn(-c4ccc(F)cc4)c3C=C1CC[C@@H]2CN(CCO)S(=O)(=O)c1ccccc1C#N [Example 78, 2-cyano-N-{[(4αR,5S)-1-(4-fluorophenyl)-4α-methyl-1,4,4α,5,6,7-hexahydrocyclopenta[f]indazol-5-yl]methyl}-N-(2-hydroxyethyl)benzenesulfonamide]	8.64
C[C@]12Cc3cnn(-c4ccc(F)cc4)c3C=C1CC[C@@H]2CN(CCO)S(=O)(=O)c1ccc(Oc2ccccc2)cc1 [Example 79, N-{[(4αR,5S)-1-(4-fluorophenyl)-4α-methyl-1,4,4α,5,6,7-hexahydrocyclopenta[f]indazol-5-yl]methyl}-N-(2-hydroxyethyl)-4-phenoxybenzenesulfonamide]	8.32
C[C@]12Cc3cnn(-c4ccc(F)cc4)c3C=C1CC[C@@H]2CN(CCO)S(=O)(=O)c1cc(C(F)(F)F)ccc1Cl [Example 80, 2-chloro-N-{[(4αR,5S)-1-(4-fluorophenyl)-4α-methyl-1,4,4α,5,6,7-hexahydrocyclopenta[f]indazol-5-yl]methyl}-N-(2-hydroxyethyl)-5-(trifluoromethyl)benzenesulfonamide]	7.86
C[C@]12Cc3cnn(-c4ccc(F)cc4)c3C=C1CC[C@@H]2CN(CCO)S(=O)(=O)c1ccccc1Cl [Example 81, 2-chloro-N-{[(4αR,5S)-1-(4-fluorophenyl)-4α-methyl-1,4,4α,5,6,7-hexahydrocyclopenta[f]indazol-5-yl]methyl}-N-(2-hydroxyethyl)benzenesulfonamide]	8.14
C[C@]12Cc3cnn(-c4ccc(F)cc4)c3C=C1CC[C@@H]2CN(CCO)S(=O)(=O)c1ccc(F)cc1F [Example 82, 2,4-difluoro-N-{[(4αR,5S)-1-(4-fluorophenyl)-4α-methyl-1,4,4α,5,6,7-hexahydrocyclopenta[f]indazol-5-yl]methyl}-N-(2-hydroxyethyl)benzenesulfonamide]	8.49
Cc1nn(C)c(Cl)c1S(=O)(=O)N(CCO)C[C@H]1CCC2=Cc3c(cnn3-c3ccc(F)cc3)C[C@@]21C [Example 83, 5-chloro-N-{[(4αR,5S)-1-(4-fluorophenyl)-4α-methyl-1,4,4α,5,6,7-hexahydrocyclopenta[f]indazol-5-yl]methyl}-N-(2-hydroxyethyl)-1,3-dimethyl-1H-pyrazole-4-sulfonamide]	8.43
C[C@]12Cc3cnn(-c4ccc(F)cc4)c3C=C1CC[C@@H]2CN(CCO)S(=O)(=O)c1ccccc1-c1ccccc1 [Example 84, N-{[(4αR,5S)-1-(4-fluorophenyl)-4α-methyl-1,4,4α,5,6,7-hexahydrocyclopenta[f]indazol-5-yl]methyl}-N-(2-hydroxyethyl)biphenyl-2-sulfonamide]	8.59
CC(=O)Nc1ccc(S(=O)(=O)N(CCO)C[C@H]2CCC3=Cc4c(cnn4-c4ccc(F)cc4)C[C@@]32C)cc1 [Example 85, N-(4-{[{[(4αR,5S)-1-(4-fluorophenyl)-4α-methyl-1,4,4α,5,6,7-hexahydrocyclopenta[f]indazol-5-yl]methyl}(2-hydroxyethyl)amino]sulfonyl}phenyl)acetamide]	8.16
C[C@]12Cc3cnn(-c4ccc(F)cc4)c3C=C1CC[C@@H]2CN(CCc1ccccc1F)S(=O)(=O)c1ccccc1F [Example 86, 2-fluoro-N-[2-(2-fluorophenyl)ethyl]-N-{[(4αR,5S)-1-(4-fluorophenyl)-4α-methyl-1,4,4α,5,6,7-hexahydrocyclopenta[f]indazol-5-yl]methyl}benzenesulfonamide]	8.38
CCCS(=O)(=O)N(CCc1ccccc1F)C[C@H]1CCC2=Cc3c(cnn3-c3ccc(F)cc3)C[C@@]21C [Example 87, N-[2-(2-fluorophenyl)ethyl]-N-{[(4αR,5S)-1-(4-fluorophenyl)-4α-methyl-1,4,4α,5,6,7-hexahydrocyclopenta[f]indazol-5-yl]methyl}propane-1-sulfonamide]	8.55
C[C@]12Cc3cnn(-c4ccc(F)cc4)c3C=C1CC[C@@H]2CN(CCc1ccccc1F)S(=O)(=O)Cc1cccc(C(F)(F)F)c1 [Example 88, N-[2-(2-fluorophenyl)ethyl]-N-{[(4αR,5S)-1-(4-fluorophenyl)-4α-methyl-1,4,4α,5,6,7-hexahydrocyclopenta[f]indazol-5-yl]methyl}-1-[3-(trifluoromethyl)phenyl]methanesulfonamide]	8.43
C[C@]12Cc3cnn(-c4ccc(F)cc4)c3C=C1CC[C@@H]2CN(CCc1ccccc1F)S(=O)(=O)CC(F)(F)F [Example 89, 2,2,2-trifluoro-N-[2-(2-fluorophenyl)ethyl]-N-{[(4αR,5S)-1-(4-fluorophenyl)-4α-methyl-1,4,4α,5,6,7-hexahydrocyclopenta[f]indazol-5-yl]methyl}ethanesulfonamide]	8.62
COc1ccccc1CCN(C[C@H]1CCC2=Cc3c(cnn3-c3ccc(F)cc3)C[C@@]21C)S(=O)(=O)c1ccccc1F [Example 90, 2-fluoro-N-{[(4αR,5S)-1-(4-fluorophenyl)-4α-methyl-1,4,4α,5,6,7-hexahydrocyclopenta[f]indazol-5-yl]methyl}-N-[2-(2-methoxyphenyl)ethyl]benzenesulfonamide]	8.44
Cc1ccc(CCN(C[C@H]2CCC3=Cc4c(cnn4-c4ccc(F)cc4)C[C@@]32C)S(=O)(=O)c2ccccc2F)cc1 [Example 91, 2-fluoro-N-{[(4αR,5S)-1-(4-fluorophenyl)-4α-methyl-1,4,4α,5,6,7-hexahydrocyclopenta[f]indazol-5-yl]methyl}-N-[2-(4-methylphenyl)ethyl]benzenesulfonamide]	8.70
C[C@]12Cc3cnn(-c4ccc(F)cc4)c3C=C1CC[C@@H]2CN(CCc1ccccc1Cl)S(=O)(=O)c1ccccc1F [Example 92, N-[2-(2-chlorophenyl)ethyl]-2-fluoro-N-{[(4αR,5S)-1-(4-fluorophenyl)-4α-methyl-1,4,4α,5,6,7-hexahydrocyclopenta[f]indazol-5-yl]methyl}benzenesulfonamide]	8.52
CC(C1CCC2=Cc3c(cnn3-c3ccc(F)cc3)C[C@@]21C)N(CCc1ccccc1F)S(=O)(=O)CC(F)(F)F (stereo partly drawn) [Example 93, 2,2,2-trifluoro-N-[2-(2-fluorophenyl)ethyl]-N-{1-[(4αR)-1-(4-fluorophenyl)-4α-methyl-1,4,4α,5,6,7-hexahydrocyclopenta[f]indazol-5-yl]ethyl}ethanesulfonamide]	8.57
COCCN(C[C@H]1CCC2=Cc3c(cnn3-c3ccc(F)cc3)C[C@@]21C)S(=O)(=O)c1ccccc1F [Example 94, 2-fluoro-N-{[(4αR,5S)-1-(4-fluorophenyl)-4α-methyl-1,4,4α,5,6,7-hexahydrocyclopenta[f]indazol-5-yl]methyl}-N-(2-methoxyethyl)benzenesulfonamide]	8.54
